Like-named read-outs stand apart in the source and are kept apart here. Where a SMILES comes first, the peptide text is derived from it. Bridges are numbered along the chain shown (N, C = ends). [ ]: non-standard residue; d: D form. The star is where a group is joined. ξ: configuration not given here. ξNMePhe(4-NMe2) = CNC(Cc1ccc(N(C)C)cc1)C(=O)O; Picolinoyl(3-OH) = O=C(c1ncccc1O)*; ξPip(4-oxo) = O=C1CCNC(C(=O)O)C1; Phg = N[CH](C(=O)O)c1ccccc1; Hiv = CC(C)[C@H](O)C(=O)O; Abu = CC[CH](N)C(=O)O
What was measured:
[1] = system: P. falciparum 3D7 parasites; test: P. falciparum growth inhibition assay, 1-cycle (72 h treatment), SYBR DNA staining (library screen at 2 μg/mL and dose-response); assay type: cell-based, Plasmodium falciparum; conditions: for activity at 2 µg/mL: Plasmodium falciparum
[2] = system: P. falciparum 3D7 parasites; test: P. falciparum growth inhibition assay, 2-cycle (120 h treatment), delayed-death screen and dose-response; assay type: cell-based, Plasmodium falciparum; conditions: for activity at 2 µg/mL: Plasmodium falciparum
[3] = system: T. gondii RH strain (RH-Tub-eYFP) tachyzoites; test: microbe, parasite or virus in culture; assay type: cell-based, Toxoplasma gondii
[4] = P. falciparum, 72 h, screen at 2 μg/mL, replicate 1
[5] = P. falciparum, 72 h, screen at 2 μg/mL, replicate 2
[6] = P. falciparum, 120 h, screen at 2 μg/mL, replicate 1
[7] = P. falciparum, 120 h, screen at 2 μg/mL, replicate 2
[8] = T. gondii, 72 h, screen at 2 μg/mL, replicate 1
[9] = T. gondii, 72 h, screen at 2 μg/mL, replicate 2
[10] = P. falciparum, 72 h, parasite screen 2 μg/mL, % growth, replicate 1
[11] = P. falciparum, 72 h, parasite screen 2 μg/mL, % growth, replicate 2
[12] = P. falciparum, 120 h, parasite screen 2 μg/mL, % growth, replicate 1
[13] = P. falciparum, 120 h, parasite screen 2 μg/mL, % growth, replicate 2
[14] = T. gondii, 72 h, parasite screen 2 μg/mL, % growth, replicate 1
[15] = T. gondii, 72 h, parasite screen 2 μg/mL, % growth, replicate 2
[16] = library screen at 2 μg/mL, 72 h, % growth, replicate 1
[17] = library screen at 2 μg/mL, 72 h, % growth, replicate 2
[18] = library screen at 2 μg/mL, 120 h, % growth, replicate 1
[19] = library screen at 2 μg/mL, 120 h, % growth, replicate 2
[20] = P. falciparum 3D7, 72 h, parasite screen at 2 μg/mL, % growth, replicate 1
[21] = P. falciparum 3D7, 72 h, parasite screen at 2 μg/mL, % growth, replicate 2
[22] = P. falciparum 3D7, 120 h, parasite screen at 2 μg/mL, % growth, replicate 1
[23] = P. falciparum 3D7, 120 h, parasite screen at 2 μg/mL, % growth, replicate 2
[24] = T. gondii, 72 h, parasite screen at 2 μg/mL, % growth, replicate 1
[25] = T. gondii, 72 h, parasite screen at 2 μg/mL, % growth, replicate 2

C[C@H]1C/C=C/[C@H]2[C@@H]3O[C@]3(C)[C@@H](C)[C@H]3[C@H](Cc4ccccc4)NC(=O)[C@]32OC(=O)O/C=C/[C@@](C)(O)C1=O [Cytochalasin E]
activity at 2 µg/mL ([1]; 3D7, 72 h, P. falciparum, 72 h, screen at 2 μg/mL, replicate 1, read-out: Pf_72h_%Growth_Rep1): 64% | activity at 2 µg/mL ([1]; 3D7, 72 h, P. falciparum, 72 h, screen at 2 μg/mL, replicate 2, read-out: Pf_72h_%Growth_Rep2): 54.5% | activity at 2 µg/mL ([2]; 3D7, 120 h, P. falciparum, 120 h, screen at 2 μg/mL, replicate 1, read-out: Pf_120h_%Growth_Rep1): 53.6% | activity at 2 µg/mL ([2]; 3D7, 120 h, P. falciparum, 120 h, screen at 2 μg/mL, replicate 2, read-out: Pf_120h_%Growth_Rep2): 53.8% | percent parasite growth at 2 µg/mL ([3]; Toxoplasma gondii, 72 h, T. gondii, 72 h, screen at 2 μg/mL, replicate 1; read-out: Tg_72h_%Growth_Rep1): 89.3% | percent parasite growth at 2 µg/mL ([3]; Toxoplasma gondii, 72 h, T. gondii, 72 h, screen at 2 μg/mL, replicate 2; read-out: Tg_72h_%Growth_Rep2): 102%

CCC(=O)N[C@H](CO)[C@H](O)c1ccc([N+](=O)[O-])cc1 [Corynecin II]
Pf_72h_%Growth_Rep1 [1, 4]: 84.27% | Pf_72h_%Growth_Rep2 [1, 5]: 79.27% | Pf_120h_%Growth_Rep1 [2, 6]: 83.93% | Pf_120h_%Growth_Rep2 [2, 7]: 86.26% | Tg_72h_%Growth_Rep1 [3, 8]: 140.85% | Tg_72h_%Growth_Rep2 [3, 9]: 90.01%

CCC1NC(=O)C(NC(=O)c2ncccc2O)C(C)OC(=O)C(c2ccccc2)NC(=O)C2CC(=O)CCN2C(=O)C(Cc2ccc(N(C)C)cc2)N(C)C(=O)C2CCCN2C1=O (stereo not drawn) [Virginiamycin B] ({Picolinoyl(3-OH)}-T[Abu]P[ξNMePhe(4-NMe2)][ξPip(4-oxo)][Phg]; ester 1-C; configuration not given here)
Pf_72h_%Growth_Rep1 [1, 4]: 73.90% | Pf_72h_%Growth_Rep2 [1, 5]: 82.34% | Pf_120h_%Growth_Rep1 [2, 6]: 152.31% | Pf_120h_%Growth_Rep2 [2, 7]: 75.63% | Tg_72h_%Growth_Rep1 [3, 8]: 93.06% | Tg_72h_%Growth_Rep2 [3, 9]: 114.46%

CCCNC[C@]1(O)[C@H](C)O[C@@H](O[C@H]2[C@H](C)[C@@H](O[C@@H]3O[C@H](C)C[C@H](N(C)C)[C@H]3O)[C@](C)(O)C[C@@H](C)CN[C@H](C)[C@@H](O)[C@](C)(O)[C@@H](CC)OC(=O)[C@@H]2C)C[C@@]1(C)OC [Tulathromycin, reference compound]
1) Growth (%) at 72 h ([1]; P. falciparum, 2 μg/mL, 72 h): 33.53% | Pf_72h_%Growth_Rep1 [1, 4]: 33.36% | Pf_72h_%Growth_Rep2 [1, 5]: 33.69% | 2) Growth (%) at 120 h ([2]; P. falciparum, 2 μg/mL, 120 h): 16.75% | Pf_120h_%Growth_Rep1 [2, 6]: 21.75% | Pf_120h_%Growth_Rep2 [2, 7]: 11.74% | 3) Fold change (72 h/120 h) ([2]; P. falciparum, growth at 72 h / growth at 120 h, 2 μg/mL): 2.0 | Tg_72h_%Growth_Rep1 [3, 8]: 76.92% | Tg_72h_%Growth_Rep2 [3, 9]: 80.94%

CN[C@H]1C(=O)N[C@@H]2Cc3ccc(cc3)Oc3cc4cc(c3O[C@@H]3O[C@H](C(=O)O)[C@@H](O)[C@H](O)[C@H]3NC(=O)CCCCCCCCC(C)C)Oc3ccc(cc3Cl)[C@@H](O)[C@@H]3NC(=O)[C@H](NC(=O)[C@@H]4NC(=O)[C@@H](NC2=O)c2cc(cc(O)c2Cl)Oc2cc1ccc2O)c1ccc(O)c(c1)-c1c(O[C@H]2O[C@H](CO)[C@@H](O)[C@H](O)[C@@H]2O)cc(O)cc1[C@@H](C(=O)NCCCN(C)C)NC3=O [Dalbavancin]
Pf_72h_%Growth_Rep1 [1, 4]: 84.83% | Pf_72h_%Growth_Rep2 [1, 5]: 84.70% | Pf_120h_%Growth_Rep1 [2, 6]: 61.95% | Pf_120h_%Growth_Rep2 [2, 7]: 91.53% | Tg_72h_%Growth_Rep1 [3, 8]: 148.88% | Tg_72h_%Growth_Rep2 [3, 9]: 101.28%

CC(C)C[C@@H]1NC(=O)[C@H](C(C)C)NC(=O)[C@H](C(C)C)OC(=O)[C@@H](CC(C)C)NC(=O)[C@@H](C(C)C)NC(=O)[C@H](C(C)C)OC1=O [Sporidesmolide III] (cyclo([Hiv]VL[Hiv][dV][dL]))
Pf_72h_%Growth_Rep1 [1, 10]: 74.67% | Pf_72h_%Growth_Rep2 [1, 11]: 81.35% | Pf_120h_%Growth_Rep1 [2, 12]: 153.85% | Pf_120h_%Growth_Rep2 [2, 13]: 76.17% | Tg_72h_%Growth_Rep1 [3, 14]: 94.68% | Tg_72h_%Growth_Rep2 [3, 15]: 93.28%

CC(=O)Nc1c2sscc-2n(C)c1=O [Thiolutin]
activity at 2 µg/mL ([1]; 3D7, P. falciparum, 72 h, screen at 2 μg/mL, replicate 1, read-out: Pf_72h_%Growth_Rep1): 4.59% | activity at 2 µg/mL ([1]; 3D7, P. falciparum, 72 h, screen at 2 μg/mL, replicate 2, read-out: Pf_72h_%Growth_Rep2): 0.05% | activity at 2 µg/mL ([2]; 3D7, P. falciparum, 120 h, screen at 2 μg/mL, replicate 1, read-out: Pf_120h_%Growth_Rep1): 42.4% | activity at 2 µg/mL ([2]; 3D7, P. falciparum, 120 h, screen at 2 μg/mL, replicate 2, read-out: Pf_120h_%Growth_Rep2): 15.5% | percent parasite growth at 2 µg/mL ([3]; Toxoplasma gondii; T. gondii, 72 h, screen at 2 μg/mL, replicate 1; read-out: Tg_72h_%Growth_Rep1): 2.01% | percent parasite growth at 2 µg/mL ([3]; Toxoplasma gondii; T. gondii, 72 h, screen at 2 μg/mL, replicate 2; read-out: Tg_72h_%Growth_Rep2): 1.94%

C=C1[C@@H](C)[C@H]2[C@H](Cc3ccccc3)NC(=O)[C@]23[C@H](OC(C)=O)/C=C/[C@](C)(O)C[C@@H](C)C/C=C/[C@H]3[C@@H]1O [Cytochalasin H]
Pf_72h_%Growth_Rep1 [1, 4]: 6.96% | Pf_72h_%Growth_Rep2 [1, 5]: 6.37% | Pf_120h_%Growth_Rep1 [2, 6]: 1.94% | Pf_120h_%Growth_Rep2 [2, 7]: -0.33% | Tg_72h_%Growth_Rep1 [3, 8]: 1.51% | Tg_72h_%Growth_Rep2 [3, 9]: 2.70%

C=C1CCO[C@]2([C@@H](O)[C@@](C)(O)COC(=O)c3ccccc3)NC(=O)[C@@]1(O)NC2=O [Bicyclomycin benzoate]
Pf_72h_%Growth_Rep1 [1, 16]: 94.43% | Pf_72h_%Growth_Rep2 [1, 17]: 88.43% | Pf_120h_%Growth_Rep1 [2, 18]: 148.77% | Pf_120h_%Growth_Rep2 [2, 19]: 99.84% | Tg_72h_%Growth_Rep1 [3, 16]: 81.93% | Tg_72h_%Growth_Rep2 [3, 17]: 95.48%

CC1=CCC2CC(CC3(CCC(C)C(C)O3)O2)OC(=O)C2C=C(C)C(O)C3OCC(=CC=CC(C)C1)C23O (stereo not drawn) [BIA-M1051]
Pf_72h_%Growth_Rep1 [1, 20]: 47.24% | Pf_72h_%Growth_Rep2 [1, 21]: 1.70% | Pf_120h_%Growth_Rep1 [2, 22]: 10.36% | Pf_120h_%Growth_Rep2 [2, 23]: 24.90% | Tg_72h_%Growth_Rep1 [3, 24]: 114.92% | Tg_72h_%Growth_Rep2 [3, 25]: 98.32%

CO[C@@]12[C@H](COC(N)=O)C3=C(C(=O)C(C)=C(N)C3=O)N1C[C@@H]1N[C@@H]12 [BIA-M1183]
Pf_72h_%Growth_Rep1 [1, 20]: 82.66% | Pf_72h_%Growth_Rep2 [1, 21]: 112.82% | Pf_120h_%Growth_Rep1 [2, 22]: 92.29% | Pf_120h_%Growth_Rep2 [2, 23]: 100.91% | Tg_72h_%Growth_Rep1 [3, 24]: 127.95% | Tg_72h_%Growth_Rep2 [3, 25]: 82.68%

O=C(O)c1c(=O)cccc2ssc12 [Tropodithietic acid]
Pf_72h_%Growth_Rep1 [1, 4]: 3.58% | Pf_72h_%Growth_Rep2 [1, 5]: -3.15% | Pf_120h_%Growth_Rep1 [2, 6]: 21.29% | Pf_120h_%Growth_Rep2 [2, 7]: 16.13% | Tg_72h_%Growth_Rep1 [3, 8]: 1.16% | Tg_72h_%Growth_Rep2 [3, 9]: 1.78%

CO[C@H]1C[C@H](O[C@H]2[C@H](C)O[C@@H](O[C@@H]3/C(C)=C/C[C@@H]4C[C@@H](C[C@]5(C=C[C@H](C)[C@@H](C6CCCCC6)O5)O4)OC(=O)[C@H]4C=C(C)[C@@H](O)[C@H]5OC/C(=C\C=C\[C@@H]3C)[C@@]45O)C[C@@H]2OC)O[C@@H](C)[C@@H]1O [Doramectin, epi-]
Pf_72h_%Growth_Rep1 [1, 16]: 8.06% | Pf_72h_%Growth_Rep2 [1, 17]: 18.63% | Pf_120h_%Growth_Rep1 [2, 18]: -3.39% | Pf_120h_%Growth_Rep2 [2, 19]: 23.35% | Tg_72h_%Growth_Rep1 [3, 16]: 72.64% | Tg_72h_%Growth_Rep2 [3, 17]: 83.42%

C/C=C/c1cc2c(c(=O)o1)[C@H](O)[C@@H](O)[C@H](C)O2 [Radicinol]
Pf_72h_%Growth_Rep1 [1, 10]: 83.85% | Pf_72h_%Growth_Rep2 [1, 11]: 102.30% | Pf_120h_%Growth_Rep1 [2, 12]: 82.58% | Pf_120h_%Growth_Rep2 [2, 13]: 123.93% | Tg_72h_%Growth_Rep1 [3, 14]: 118.35% | Tg_72h_%Growth_Rep2 [3, 15]: 83.89%

CCCCCC(=O)C(CCCC)c1oc(=O)c(CCCC)c(O)c1CCCC (stereo not drawn) [Elasnin]
Pf_72h_%Growth_Rep1 [1, 16]: 87.43% | Pf_72h_%Growth_Rep2 [1, 17]: 85.83% | Pf_120h_%Growth_Rep1 [2, 18]: 85.68% | Pf_120h_%Growth_Rep2 [2, 19]: 81.51% | Tg_72h_%Growth_Rep1 [3, 16]: 103.90% | Tg_72h_%Growth_Rep2 [3, 17]: 75.71%

— publication PMC12396409, “Screening and hit evaluation of a microbial metabolite library against the pathogenic Plasmodium falciparum and Toxoplasma gondii parasites” (International Journal for Parasitology: Drugs and Drug …, 2025)
